ChEMBL document CHEMBL1201862, “PubChem BioAssay data set” (2004)
The source made the active and inactive calls.

Assays:
[1] = THP-1 cell cytotoxicity, dose response, cytotoxicity control for non-replicating M. tuberculosis project (AID 489025); format: functional
[2] = cells; format: functional
[3] = cells; format: functional, cell-based
[4] = cells; format: functional, cell-based; remark: listed apart in the source
[5] = biological target: T1, Cytochrome P450 3A4 (Homo sapiens, UniProt P08684); details: Potency
[6] = biological target: Melanocortin receptor 4 (Homo sapiens, UniProt P32245); test: inhibitors of MC4R cAMP signaling – cell-based, TR-FRET, biased antagonists, dose response (AID 602298); format: functional;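 note: antagonist potency against agonist-stimulated cAMP production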
[7] = cAMP pathway inhibition in counterscreen cell line – TR-FRET cAMP detection, counter-screen for MC4R biased antagonist project, dose response (AID 602305); format: functional, cell-based;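 note: U2OS cells stimulated with forskolin near its EC80 as the cAMP inducer; potency is for inhibition of forskolin-stimulated cAMP signaling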
[8] = biological target: T2, High affinity choline transporter 1 (Homo sapiens, UniProt Q9GZV3); test: human choline transporter blockers, potency – cell-based, 5-point CRC, membrane potential dye, dose response (AID 504840); format: functional
T2 sequence (Q9GZV3 whole entry): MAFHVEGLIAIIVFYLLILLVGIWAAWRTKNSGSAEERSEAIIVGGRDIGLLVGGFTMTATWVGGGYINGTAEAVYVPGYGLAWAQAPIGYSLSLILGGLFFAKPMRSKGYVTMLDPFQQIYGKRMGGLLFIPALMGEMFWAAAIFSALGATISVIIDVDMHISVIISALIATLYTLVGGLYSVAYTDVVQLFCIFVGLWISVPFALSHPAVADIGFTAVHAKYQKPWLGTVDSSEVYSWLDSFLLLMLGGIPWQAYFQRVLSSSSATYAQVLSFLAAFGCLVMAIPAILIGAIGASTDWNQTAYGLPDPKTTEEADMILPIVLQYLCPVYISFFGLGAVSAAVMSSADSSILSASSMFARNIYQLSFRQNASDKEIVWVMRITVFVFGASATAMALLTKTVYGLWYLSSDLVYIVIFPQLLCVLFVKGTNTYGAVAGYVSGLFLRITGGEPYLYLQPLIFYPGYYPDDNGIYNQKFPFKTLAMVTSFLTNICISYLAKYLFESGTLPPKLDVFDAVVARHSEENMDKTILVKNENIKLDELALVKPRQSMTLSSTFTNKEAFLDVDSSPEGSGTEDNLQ

[9] = biological target: T3, Zinc finger protein mex-5 (Caenorhabditis elegans, UniProt Q9XUB2); test: potency of MEX-5 RNA-binding blockers – biochemical, C. elegans, fluorescence polarization, dose response (AID 1960)
T3 sequence (Q9XUB2 whole entry): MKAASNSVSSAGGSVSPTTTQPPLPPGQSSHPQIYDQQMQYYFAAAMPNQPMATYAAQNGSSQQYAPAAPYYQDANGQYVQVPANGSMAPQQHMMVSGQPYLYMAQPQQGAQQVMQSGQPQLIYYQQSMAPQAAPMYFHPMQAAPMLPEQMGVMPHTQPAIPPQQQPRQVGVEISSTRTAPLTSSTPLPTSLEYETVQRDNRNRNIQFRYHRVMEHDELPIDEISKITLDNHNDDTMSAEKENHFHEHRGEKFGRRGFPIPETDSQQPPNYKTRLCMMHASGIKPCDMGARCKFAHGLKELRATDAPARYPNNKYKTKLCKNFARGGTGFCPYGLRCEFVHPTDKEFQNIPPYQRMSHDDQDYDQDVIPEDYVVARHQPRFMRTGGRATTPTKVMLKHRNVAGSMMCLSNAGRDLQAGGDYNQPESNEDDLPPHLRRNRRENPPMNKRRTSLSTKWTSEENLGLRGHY

[10] = biological target: Large T antigen (Simian virus 40, UniProt P03070); format: functional, Betapolyomavirus macacae;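 note: Confirmatory-stage PubChem screen for compounds that inhibit SV40 T antigen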
[11] = biological target: T4, Aminopeptidase N (Plasmodium falciparum FcB1/Columbia, UniProt O96935); test: malaria alanyl aminopeptidase activity blockers – biochemical, fluorogenic H-Leu-NHMec substrate, 1536-well (AID 1445); design: species or system Plasmodium falciparum 3D7, 3D7
T4 sequence (O96935 whole entry): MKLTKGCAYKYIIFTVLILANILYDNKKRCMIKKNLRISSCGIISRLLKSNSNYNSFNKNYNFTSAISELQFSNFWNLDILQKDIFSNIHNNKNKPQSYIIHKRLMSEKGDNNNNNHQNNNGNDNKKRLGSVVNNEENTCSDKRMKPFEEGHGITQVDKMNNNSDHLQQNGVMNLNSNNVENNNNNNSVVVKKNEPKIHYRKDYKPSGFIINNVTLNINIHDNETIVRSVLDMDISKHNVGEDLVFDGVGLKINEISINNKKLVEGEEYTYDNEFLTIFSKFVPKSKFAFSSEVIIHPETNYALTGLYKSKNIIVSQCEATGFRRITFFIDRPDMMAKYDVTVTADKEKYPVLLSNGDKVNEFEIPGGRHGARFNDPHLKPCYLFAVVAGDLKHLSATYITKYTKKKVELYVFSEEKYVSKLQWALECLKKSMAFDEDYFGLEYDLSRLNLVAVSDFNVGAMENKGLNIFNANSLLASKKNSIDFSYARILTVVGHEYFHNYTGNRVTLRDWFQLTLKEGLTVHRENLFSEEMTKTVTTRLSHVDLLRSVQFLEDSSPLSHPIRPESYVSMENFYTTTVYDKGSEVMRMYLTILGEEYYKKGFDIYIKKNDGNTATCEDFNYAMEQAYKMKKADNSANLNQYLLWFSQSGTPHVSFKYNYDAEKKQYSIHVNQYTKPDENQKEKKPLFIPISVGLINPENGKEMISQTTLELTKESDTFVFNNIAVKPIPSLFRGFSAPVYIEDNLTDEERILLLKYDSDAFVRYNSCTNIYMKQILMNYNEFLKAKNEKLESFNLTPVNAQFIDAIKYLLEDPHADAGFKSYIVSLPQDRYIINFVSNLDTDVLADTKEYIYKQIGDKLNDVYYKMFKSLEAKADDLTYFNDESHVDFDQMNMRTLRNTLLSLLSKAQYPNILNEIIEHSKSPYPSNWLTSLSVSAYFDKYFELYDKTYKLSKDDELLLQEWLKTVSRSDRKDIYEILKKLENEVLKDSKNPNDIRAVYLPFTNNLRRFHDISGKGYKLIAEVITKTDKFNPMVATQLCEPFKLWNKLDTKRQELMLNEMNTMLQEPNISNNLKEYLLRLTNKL

[12] = biological target: T5, RNA-binding protein pos-1 (Caenorhabditis elegans, UniProt G5EF15); test: disruptors of C. elegans POS-1 RNA interaction – biochemical, fluorescence polarization, dose response (AID 1964);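 note: purified POS-1 fused to maltose binding protein made in E. coli; potency of compounds blocking POS-1 binding to fluorescent RNA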
T5 sequence (G5EF15 whole entry): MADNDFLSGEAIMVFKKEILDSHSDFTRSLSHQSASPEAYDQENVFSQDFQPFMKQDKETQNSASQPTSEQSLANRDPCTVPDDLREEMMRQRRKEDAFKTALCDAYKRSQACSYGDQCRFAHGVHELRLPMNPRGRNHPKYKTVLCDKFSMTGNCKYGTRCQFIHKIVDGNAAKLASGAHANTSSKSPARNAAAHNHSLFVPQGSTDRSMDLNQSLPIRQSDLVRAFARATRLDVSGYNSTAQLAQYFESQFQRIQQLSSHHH

[13] = biological target: T1, Cytochrome P450 3A4
[14] = biological target: Genome polyprotein (dengue virus type 2, UniProt P29990); test: flavivirus cap methylation enzyme inhibition – biochemical, confirmation dose response, primary screen (AID 588689); format: functional
[15] = biological target: T6, Apoptotic protease-activating factor 1 (Homo sapiens, UniProt O14727); format: functional
T6 sequence (O14727 whole entry): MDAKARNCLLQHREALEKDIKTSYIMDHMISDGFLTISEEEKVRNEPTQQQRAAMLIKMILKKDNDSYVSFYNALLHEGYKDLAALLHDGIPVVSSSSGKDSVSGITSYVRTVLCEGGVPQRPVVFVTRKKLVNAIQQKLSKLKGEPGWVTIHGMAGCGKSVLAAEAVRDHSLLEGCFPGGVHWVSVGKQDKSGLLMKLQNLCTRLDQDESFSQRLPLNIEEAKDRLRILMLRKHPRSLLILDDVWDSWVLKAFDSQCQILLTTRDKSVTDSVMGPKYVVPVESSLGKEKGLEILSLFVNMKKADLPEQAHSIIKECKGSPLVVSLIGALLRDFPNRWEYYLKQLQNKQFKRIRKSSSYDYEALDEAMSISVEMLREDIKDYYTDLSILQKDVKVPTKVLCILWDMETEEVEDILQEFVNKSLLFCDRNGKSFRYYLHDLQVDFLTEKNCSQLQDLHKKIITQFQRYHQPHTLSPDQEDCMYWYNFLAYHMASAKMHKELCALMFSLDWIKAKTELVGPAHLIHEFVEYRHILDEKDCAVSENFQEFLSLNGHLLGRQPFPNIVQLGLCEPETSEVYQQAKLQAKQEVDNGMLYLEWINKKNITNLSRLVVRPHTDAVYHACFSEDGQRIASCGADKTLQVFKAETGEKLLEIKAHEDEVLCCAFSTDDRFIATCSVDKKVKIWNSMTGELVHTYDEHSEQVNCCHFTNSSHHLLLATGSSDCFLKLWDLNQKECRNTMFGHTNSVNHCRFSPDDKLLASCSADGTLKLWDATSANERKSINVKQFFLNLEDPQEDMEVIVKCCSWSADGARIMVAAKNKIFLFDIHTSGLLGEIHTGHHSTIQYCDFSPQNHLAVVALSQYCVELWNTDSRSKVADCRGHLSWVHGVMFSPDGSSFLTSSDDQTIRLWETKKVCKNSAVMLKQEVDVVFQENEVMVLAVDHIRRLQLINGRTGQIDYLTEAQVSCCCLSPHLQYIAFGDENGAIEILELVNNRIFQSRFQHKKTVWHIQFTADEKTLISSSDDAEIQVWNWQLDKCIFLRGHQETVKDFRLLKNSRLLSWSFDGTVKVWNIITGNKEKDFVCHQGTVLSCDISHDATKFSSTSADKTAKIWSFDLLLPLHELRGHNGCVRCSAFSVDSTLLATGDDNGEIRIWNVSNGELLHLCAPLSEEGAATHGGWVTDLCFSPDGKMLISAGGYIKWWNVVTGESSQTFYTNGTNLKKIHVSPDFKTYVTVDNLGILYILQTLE

[16] = test system: HeLa; test: viability loss in HeLa cells – cell-based, ATP luminescence, cherry-pick samples, cytotoxicity control, dose response (AID 687004); format: functional; details: Homo sapiens
[17] = biological target: T7, Ubiquitin-conjugating enzyme E2 N (Homo sapiens, UniProt P61088); format: functional;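 note: Dose-response confirmation in a TR-FRET assay detecting UBC13-driven polyubiquitin chain formation, inhibition measured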
T7 sequence (P61088 whole entry): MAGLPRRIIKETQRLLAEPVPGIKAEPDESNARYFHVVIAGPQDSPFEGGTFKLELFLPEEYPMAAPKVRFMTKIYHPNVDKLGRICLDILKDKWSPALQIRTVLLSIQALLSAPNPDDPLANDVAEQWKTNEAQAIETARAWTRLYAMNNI

[18] = biological target: Glucose-6-phosphate 1-dehydrogenase (Homo sapiens, UniProt P11413); test: inhibition of Homo sapiens G6PD, dose series – biochemical, fluorescence, selectivity assay for P. falciparum G6PD inhibitor project, dose response (AID 504792); format: functional
Chain of Glucose-6-phosphate 1-dehydrogenase (P11413 whole entry): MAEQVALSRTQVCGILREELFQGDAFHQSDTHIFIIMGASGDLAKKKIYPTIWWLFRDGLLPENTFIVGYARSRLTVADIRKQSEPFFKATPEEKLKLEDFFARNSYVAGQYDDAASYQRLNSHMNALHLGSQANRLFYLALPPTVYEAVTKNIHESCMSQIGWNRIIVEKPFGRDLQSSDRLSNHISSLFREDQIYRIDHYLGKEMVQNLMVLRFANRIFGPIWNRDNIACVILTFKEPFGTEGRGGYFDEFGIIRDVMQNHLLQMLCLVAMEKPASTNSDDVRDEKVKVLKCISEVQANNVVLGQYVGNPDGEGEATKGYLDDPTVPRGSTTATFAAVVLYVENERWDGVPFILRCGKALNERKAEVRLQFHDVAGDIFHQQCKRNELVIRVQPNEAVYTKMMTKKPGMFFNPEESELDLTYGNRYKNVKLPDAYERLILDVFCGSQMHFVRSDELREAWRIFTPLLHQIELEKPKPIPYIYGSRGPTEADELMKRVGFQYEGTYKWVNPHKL

Chain of Melanocortin receptor 4 (P32245 whole entry): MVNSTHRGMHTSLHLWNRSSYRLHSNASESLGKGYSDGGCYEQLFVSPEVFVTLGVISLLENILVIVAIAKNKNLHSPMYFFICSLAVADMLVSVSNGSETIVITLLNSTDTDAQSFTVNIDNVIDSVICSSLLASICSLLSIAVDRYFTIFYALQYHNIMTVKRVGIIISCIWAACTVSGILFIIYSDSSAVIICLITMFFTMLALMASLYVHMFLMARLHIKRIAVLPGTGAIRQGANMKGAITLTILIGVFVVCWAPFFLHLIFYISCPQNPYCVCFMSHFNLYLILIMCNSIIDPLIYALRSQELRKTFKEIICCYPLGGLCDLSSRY
T1 sequence (P08684 whole entry): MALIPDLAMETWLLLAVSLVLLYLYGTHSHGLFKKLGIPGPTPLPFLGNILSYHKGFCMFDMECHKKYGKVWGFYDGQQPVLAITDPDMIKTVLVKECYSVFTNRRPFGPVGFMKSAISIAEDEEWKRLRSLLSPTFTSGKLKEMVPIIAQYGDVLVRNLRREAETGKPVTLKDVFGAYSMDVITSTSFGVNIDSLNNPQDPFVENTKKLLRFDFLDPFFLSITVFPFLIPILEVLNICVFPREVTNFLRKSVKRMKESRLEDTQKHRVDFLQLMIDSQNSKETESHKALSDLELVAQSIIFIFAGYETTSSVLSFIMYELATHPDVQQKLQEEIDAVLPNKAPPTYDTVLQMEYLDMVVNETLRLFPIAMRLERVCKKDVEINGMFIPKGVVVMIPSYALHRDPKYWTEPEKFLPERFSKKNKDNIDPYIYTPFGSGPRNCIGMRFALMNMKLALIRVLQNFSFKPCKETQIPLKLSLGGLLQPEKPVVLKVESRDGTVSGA
Chain of Genome polyprotein (P29990 2492-3391 limits assumed): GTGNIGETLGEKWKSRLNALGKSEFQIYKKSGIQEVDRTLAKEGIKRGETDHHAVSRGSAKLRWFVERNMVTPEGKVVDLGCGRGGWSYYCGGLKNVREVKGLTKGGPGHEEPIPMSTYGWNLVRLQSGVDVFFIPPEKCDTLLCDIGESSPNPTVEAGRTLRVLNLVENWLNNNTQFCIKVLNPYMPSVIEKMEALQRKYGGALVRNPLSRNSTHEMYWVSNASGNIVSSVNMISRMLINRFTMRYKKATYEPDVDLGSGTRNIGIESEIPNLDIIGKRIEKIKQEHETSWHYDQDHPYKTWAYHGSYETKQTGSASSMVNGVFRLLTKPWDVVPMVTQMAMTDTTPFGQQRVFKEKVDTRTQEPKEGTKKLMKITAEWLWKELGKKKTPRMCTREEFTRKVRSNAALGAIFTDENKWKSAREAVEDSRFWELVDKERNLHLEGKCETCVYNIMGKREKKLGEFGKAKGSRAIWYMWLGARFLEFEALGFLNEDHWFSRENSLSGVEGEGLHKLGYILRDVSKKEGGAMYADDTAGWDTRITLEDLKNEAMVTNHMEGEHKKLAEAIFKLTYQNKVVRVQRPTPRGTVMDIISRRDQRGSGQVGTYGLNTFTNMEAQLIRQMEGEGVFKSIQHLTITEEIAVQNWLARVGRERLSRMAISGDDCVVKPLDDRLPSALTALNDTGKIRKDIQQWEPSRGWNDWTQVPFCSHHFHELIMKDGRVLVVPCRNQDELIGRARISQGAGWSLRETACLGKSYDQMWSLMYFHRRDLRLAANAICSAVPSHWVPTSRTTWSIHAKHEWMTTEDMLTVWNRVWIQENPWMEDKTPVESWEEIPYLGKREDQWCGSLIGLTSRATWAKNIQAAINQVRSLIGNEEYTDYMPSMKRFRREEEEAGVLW
Chain of Large T antigen (P03070 whole entry): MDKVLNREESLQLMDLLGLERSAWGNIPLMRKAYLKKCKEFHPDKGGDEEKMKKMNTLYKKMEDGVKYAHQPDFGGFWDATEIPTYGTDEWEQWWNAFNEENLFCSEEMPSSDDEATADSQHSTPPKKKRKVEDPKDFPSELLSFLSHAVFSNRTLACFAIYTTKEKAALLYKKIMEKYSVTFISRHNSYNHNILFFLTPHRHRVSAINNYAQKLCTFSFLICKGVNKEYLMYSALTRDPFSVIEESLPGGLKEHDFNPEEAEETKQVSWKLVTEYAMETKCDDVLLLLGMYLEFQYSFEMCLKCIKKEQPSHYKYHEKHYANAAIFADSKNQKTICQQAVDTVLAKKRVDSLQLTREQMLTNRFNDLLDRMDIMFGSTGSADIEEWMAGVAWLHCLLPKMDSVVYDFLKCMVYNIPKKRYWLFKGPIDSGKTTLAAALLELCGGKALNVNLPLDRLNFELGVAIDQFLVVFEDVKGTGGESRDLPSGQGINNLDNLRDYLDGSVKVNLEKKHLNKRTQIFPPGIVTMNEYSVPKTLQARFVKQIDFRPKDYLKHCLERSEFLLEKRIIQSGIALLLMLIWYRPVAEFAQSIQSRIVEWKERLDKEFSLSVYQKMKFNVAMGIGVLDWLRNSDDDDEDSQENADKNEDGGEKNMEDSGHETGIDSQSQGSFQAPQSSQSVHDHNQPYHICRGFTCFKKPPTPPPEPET

For `Cc1nc(C)c(/C(O)=C/c2nc3ccccc3oc2=O)s1`, the CC50 [1] was > 40 µM (active) and the IC50 [2] was 3.09 µM (active).
With `CN1C(=O)C2CN(CCc3ccccc3)CNC2N(C)C1=O` (stereo unspecified) the EC50 [3] was > 29.9 µM (inactive) and the IC50 [4] was > 29.9 µM (inactive).
With `CN1CCc2cc3c(cc2C(=O)Cc2ccc4c(c2C1)OCO4)OCO3` the AC50 [5] was 25.1 µM (inconclusive).
For `O=C(CSc1nccc(O)n1)N1CCc2ccccc2C1`, the EC50 [3] was > 29.9 µM (inactive) and the IC50 [4] was > 29.9 µM (inactive).
With `CN(C)CCCN1C(=O)C(O)=C(C(=O)c2cc3ccccc3o2)C1c1ccccn1` (stereo unspecified) the IC50 [6] was > 64.6 µM (inactive) and the IC50 [7] was > 64.6 µM (inactive).
In the case of `C=CC(=O)OCCCCCCOC(=O)C=C`, the AC50 [5] is reported as 25.1 µM (inconclusive).
In the case of `CC(/C=C(\O)c1ccc(Br)cc1)=N/NC(=O)c1ccccc1`, the CC50 [1] is reported as 22.2 µM (active).
In the case of `O=C(Nc1ccc(F)c([N+](=O)[O-])c1)C1CC(=O)N(Cc2ccccc2)C1` (stereo unspecified), the IC50 [6] is reported as > 64.6 µM (inactive) and the IC50 [7] is reported as > 64.6 µM (inactive).
For `CCCc1nc(SCC(=O)Nc2nc3c(s2)CCCC3)c2ccccc2n1`, the IC50 [6] was > 64.6 µM (inactive) and the IC50 [7] was > 64.6 µM (inactive).
For `Cc1cnc(C)c(N2CCN(Cc3nc(-c4cccc(F)c4F)oc3C)CC2)n1`, the IC50 [8] was 15.1 µM (active).
In the case of `O=c1cc(-c2ccc(O)c(O)c2)oc2cc(O)cc(O)c12` [LUTEOLIN], the EC50 [9] is reported as 31 µM (active), the IC50 [10] is reported as 11.9 µM (active) and the IC50 [11] is reported as 22.9 µM (active). For the same compound, the EC50 [12] was 60.4 µM (active) and the AC50 [13] was 5.01 µM (inconclusive).
For `Cc1ncc(CN2CC=C(c3ccccc3)CC2)c(N)n1`, the AC50 [5] was 25.1 µM (inconclusive).
For `CC(NC(=O)c1ccc(F)cc1)c1ccc2c(c1)CCCC2` (stereo unspecified), the IC50 [8] was 20.9 µM (active).
With `O=C1NN(c2ccccc2)C(=O)/C1=C\c1ccccc1OCC(=O)N1CCOCC1` the IC50 [14] was > 100 µM (active).
For `Cc1cccc(NC(=O)CSCC(=O)N(C)Cc2ccc(Cl)c(Cl)c2)c1`, the IC50 [15] was > 100 µM (inactive).
With `C[C@@H]1CN([C@@H](C)CO)C(=O)CCCn2nncc2CO[C@@H]1CN(C)Cc1cccc(C(F)(F)F)c1` the AC50 [16] was > 52 µM (inactive).
For `Cc1cc(C)c(NC(=O)C2CCCN2CCC(C)C)c(C)c1` (stereo unspecified), the AC50 [16] was > 52 µM (inactive).
With `Cc1cc(C)cc(N(C(=O)c2snc(C(N)=O)c2N)C(C(=O)NCC2CCCO2)c2ccc(C)o2)c1` (stereo unspecified) the IC50 [17] was > 20 µM (inactive).
For `CCn1c(SCc2nc(-c3ccc(OC)c(OC)c3)no2)nnc1-c1cccs1`, the IC50 [8] was 11.2 µM (active).
In the case of `O=C1/C(=C/C=C/c2ccccc2)Oc2c1ccc(O)c2CN1CCN(CCO)CC1`, the CC50 [1] is reported as > 40 µM (active) and the IC50 [2] is reported as 23.3 µM (active).
With `CC(C)OCCCNc1nc2c(-c3ccccc3)nnn2c2ccccc12` the IC50 [17] was > 20 µM (inactive).
For `COc1ccc(/C=C2/SC(=S)N(CC(=O)O)C2=O)cc1OCc1ccc(Cl)cc1`, the IC50 [14] was > 100 µM (active).
In the case of `COC(=O)COc1ccc(-c2ccc(F)cc2)cc1C=O`, the IC50 [2] is reported as 3.51 µM (active).
In the case of `O=C(O)c1cccc(N2C(=O)C=CC2=O)c1`, the IC50 [18] is reported as > 80 µM (inactive) and the IC50 [14] is reported as 76.9 µM (active).
